# Measured values: patent US8470804B2, “11a, 12-derivatives of tetracycline compounds” (Paratek Pharmaceuticals, Inc., priority 2005, dated 2013)
# Key:
# common bacteria = test: In vitro minimum inhibitory concentration (MIC) assay; format: cell-based, E. coli, S. aureus, Enterococcus sp.; conditions: broth microdilution in CAMHB, 35° C., approximately 18 hours
# Experimental: The following assay was used to determine the efficacy of tetracycline compounds against common bacteria. 2 mg of each compound were dissolved in 100 μl of DMSO. […] The tetracycline compound solutions were diluted to 50 μl, volumes, with a test compound concentration of 0.098 μg/ml. Optical density (OD) determinations were made from fresh log-phase broth cultures of the test strains. Dilutions were made to achieve a final cell density of 1×10^6 CFU/ml. At OD=1, cell densities for different genera were approximately: [table] 50 μl of the cell suspensions were added to each well of microtiter plates. The final cell density should be approximately 5×10^5 CFU/ml. These plates are incubated at 35° C. in an ambient air incubator for approximately 18 hours. The plates are read with a microplate reader and are visually inspected when necessary. The MIC was defined as the lowest concentration of the tetracycline compound that inhibits growth.
# EAE induced mice = test: In vivo experimental autoimmune encephalomyelitis (EAE) murine model; design: species or system C57BL/6 female mice; conditions: IP injections 50 mg/kg each day from day 10 (onset of disease); minocycline control at same dose
# Experimental: In this example, a mouse model was used to determine the ability of the tetracycline compounds to treat demyelination related diseases. Other models which can be used are described in Brundula V. et al. Brain 2002 June; 125 (Pt 6): 1297-308 and Popovic N. et al. Ann Neural. 2002 February; 51(2):215-23.
# To induce EAE, 6 week old C57BL/6 female mice were injected subcutaneously with 200 ug of myelin oligodendrocyte glycoprotein peptide (MOG 35-55) emulsified in 200 μL of complete Freund's adjuvant containing an additional 4 mg/mL of heat killed M. tuberculosis. Mice were additionally injected intravenously (tail vein) with 150 ng of lyophilized pertussis toxin resuspended in 150 μL PBS at time 0 and again 48 hours later. In this model, the mice developed progressive posterior to anterior advancing paralysis with symptoms first appearing at 10-12 days and progressing to severe paralysis by approximately 21 days. Severity of EAE was scored daily according to the following criteria: 0, healthy; 1, limp tail; 2, partial paralysis of one or two hind limbs; 3, complete paralysis of the hind limbs; 4, complete hind limb paralysis and forelimb paraparesis; 5, moribund. All test experiments included control groups of EAE induced mice treated with vehicle only or treated with minocycline, with 10 mice per group. […]
Structure (SMILES),antibacterial activity (MIC) (common bacteria),activity in EAE model (severity of EAE scored daily 0-5) compared with minocycline (EAE induced mice)
"C[C@H]1c2ccc(N)c(O)c2C(=O)C2=C[C@]3(O)C(=O)C(C(N)=O)=C(O)[C@@H](N(C)C)[C@@H]3[C@@H](O)[C@@H]21 [9-Amino-12-dehydrodoxycline, (4S,4aR,5S,5aR,6R,12aR)-9-Amino-4-dimethylamino-3,5,10,12a-tetrahydroxy-6-methyl-1,11-dioxo-1,4,4a,5,5a,6,11,12a-octahydro-naphthacene-2-carboxylic acid amide]",low antibacterial activity,
"C[C@H]1c2ccc(N(C)C)c(O)c2C(=O)C2=C[C@]3(O)C(=O)C(C(N)=O)=C(O)[C@@H](N(C)C)[C@@H]3[C@@H](O)[C@@H]21 [9-bis-dimethylamino-12-dehydrodoxycline, (4S,4aR,5S,5aR,6R,12aR)-4,9-Bis-dimethylamino-3,5,10,12a-tetrahydroxy-6-methyl-1,11-dioxo-1,4,4a,5,5a,6,11,12a-octahydro-naphthacene-2-carboxylic acid amide]",low antibacterial activity,
"C[C@H]1c2cccc(O)c2C(=O)C2=C[C@]3(O)C(=O)C(C(N)=O)=C(O)[C@@H](N(C)C)[C@@H]3[C@@H](O)[C@@H]21 [12-dehydrodoxycycline, (4S,4aR,5S,5aR,6R,12aR)-4-Dimethylamino-3,5,10,12a-tetrahydroxy-6-methyl-1,11-dioxo-1,4,4a,5,5a,6,11,12a-octahydro-naphthacene-2-carboxylic acid amide]",low antibacterial activity,activity similar to or better than minocycline
"CNC1C2C(=O)c3c(O)cccc3[C@H](C)[C@H]2[C@H](O)[C@H]2[C@H](N(C)C)C(O)=C(C(N)=O)C(=O)[C@@]12O (stereo partly drawn) [12-methylamino-12-dehydrodoxycycline, (4S,4aR,5S,5aR,6R,12aS)-4-Dimethylamino-3,5,10,12a-tetrahydroxy-6-methyl-12-methylamino-1,11-dioxo-1,4,4a,5,5a,6,11,11a,12,12a-decahydro-naphthacene-2-carboxylic acid amide]",,activity similar to or better than minocycline
